Results taken from US9963433B2, “Anticancer drugs including the chemical structures of an androgen receptor ligand and a histone deacetylase inhibitor” (Wayne State University, priority 2016, dated 2018).

Tests used:
22Rv1 cells = test: MTT cell viability assay, 22Rv1 cells; format: cell-based; conditions: Day 3, 0.1 μM-10 μM, FIG. 6E; for EC50: Homo sapiens, 22Rv1, 72 h, read-out: EC50, inhibition of growth of 22Rv1 cells
Description: (§1) (6A) C4-2 cells were seeded in 96-well plates and 24 h later, they were treated with the indicated compounds (0.1 μM-10 μM) or with vehicle (DMSO). Cell viability was measured by the MTT assay on Days 0 and 3 of treatment. EC50 values were calculated from nonlinear regression plots using GraphPad Prism5 software. […] Cell viability was measured by the MTT assay on Days 0 and 3 of treatment. […] Cell viability was measured by the MTT assay on Days 0 and 3 of treatment. […] (6D) 22Rv1 cells were infected with AR shRNA lentivirus, or control shRNA. 72 h after infection, cells were plated and viable cells were measured by the MTT assay on the indicated days (6D, bottom). Cells were also harvested for western blot analysis and probed with antibody to AR, which was also reactive with the AR splice variant AR-V7 (6D, top). (6E) 22Rv1 cells were seeded in 96-well plates and 24 h later, they were treated with the indicated compounds (0.1 μM-10 μM) or with vehicle (DMSO). Cell viability was measured by the MTT assay on Days 0 and 3 of treatment. EC50 values were calculated from nonlinear regression plots using GraphPad Prism5 software.
(§2) Cell Proliferation Assay. Cells were trypsinized and 6000 cells/well were seeded in 96-well plates coated with poly-D-lysine. The cells were seeded in phenol red-free medium supplemented with 10% FBS, 100 units/ml penicillin, 100 μg/ml streptomycin, 2 mM L-glutamine mixture and sodium pyruvate (1 mM) for C4-2 cells and phenol red-free medium supplemented with 10% FBS, 100 units/ml penicillin, 100 μg/ml streptomycin and 2 mM L-glutamine mixture for 22Rv1 cells. The cells were grown at 37° C. in 5% CO2. Twenty four hours after seeding in the 96-well plates, the cells were treated with indicated compound or DMSO (vehicle). The culture medium was not changed during the time course of the assay. On Day zero and on Day 3, cell viability was determined using the MTT assay. MTT (10 μL, 5 mg/mL) was added to each well and incubated for 2 h at 37° C. The formazan crystal sediments were dissolved in 100 μL of DMSO, and the absorbance at 570 nm was measured using the BioTek Synergy 2 Microplate Reader (BioTek, Winooski, Vt.). […] IC50 values were calculated from nonlinear […] plots using GraphPad Prism5 software.

Hsp90 = test: Western blot of Hsp90 protein in C4-2 cells; conditions: 1 μM to 10 μM, 24 h, relative to GAPDH, FIG. 4B
Description: Cells were then harvested for western blot analysis using antibody to AR (4A), HSP90 (4B), Acetyl-Lysine (4C) or GAPDH (loading control). ImageJ software was used to determine the intensities of the bands relative to the vehicle control for each protein. The values were then divided by the values for GAPDH within the same samples.
Western Blot Analysis. Cells were washed once with phosphate buffered saline (PBS) and then lysed with RIPA buffer (150 mM NaCl, 1% Nonidet P-40, 0.5% sodium deoxycholate, 0.1% SDS, 50 mM Tris of pH 8.0) containing a protease inhibitor cocktail (Pierce, Thermo Fisher Scientific). The cell lysates were then incubated on ice for 40 minutes. Total protein concentrations were estimated using the Bradford Assay (Bio-Rad). Protein samples (10-40 ug) were heated at 95° C. for 5 minutes and resolved by electrophoresis on 8% polyacrylamide-SDS gels and electrophoretically transferred to PVDF membranes (Millipore, Billerica, Mass.). The membranes were then probed overnight at 4° C. with the appropriate primary antibody followed by the appropriate horseradish peroxidase-conjugated secondary antibody.

p21 mRNA in C4-2 cells = test: p21 mRNA induction in C4-2 cells; conditions: 48 h, FIG. 5B
DLC1 mRNA in LNCaP cells = test: In situ HDACi activity: DLC1 mRNA in LNCaP cells; format: cell-based; conditions: 10 μM, 48 h, normalized to GAPDH mRNA, FIG. 2E
Description: (§3) FIGS. 2A-2F show measurement of intrinsic and in situ HDACi activities. […]. IC50 values were calculated from nonlinear regression plots using GraphPad Prism5 software. (2B) Enz, 1002 and 3-52 were tested against HeLa cell nuclear extract at 10 μM and 25 μM and TSA (1 μM) was used as positive control. […] Recombinant HDAC6 was incubated with each drug at the indicated concentrations. IC50 values were calculated from nonlinear regression plots using GraphPad Prism5 software. (2D) Enz, 1002 and 3-52 were tested against recombinant HDAC6 at 10 μM and 25 μM and TSA (1 μM) was used as positive control. […]
(§4) Cell Culture and Reagents. LNCaP and 22Rv1 cell lines were from American Type Culture Collection (Manassas, Va.). C4-2 cells were kindly provided by Dr. Edwin Sanchez (University of Toledo). LNCaP and C4-2 cells were routinely grown at 37° C. in 5% CO2 in RPMI 1640 medium supplemented with 10% FBS (Invitrogen); 100 units/ml penicillin, 100 μg/ml streptomycin, 2 mM L-glutamine mixture (Invitrogen); and sodium pyruvate (1 mM) (Invitrogen). 22Rv1 cells were grown in RPMI 1640 medium supplemented with 10% FBS (Invitrogen); 100 units/ml penicillin, 100 μg/ml streptomycin, 2 mM L-glutamine mixture (Invitrogen). Affinity-purified rabbit anti-human antibody to AR (sc-816) and mouse anti-human antibody to GAPDH (sc-47724) were purchased from Santa Cruz Biotechnology (Santa Cruz, Calif.). Affinity-purified rabbit anti-human antibody to Hsp90 (C45G5) #4877 and rabbit anti-human antibody to acetylated lysine #9441 were purchased from Cell Signaling Technology. R1881 was kindly provided by Dr. Stephan Patrick (Karmanos Cancer Institute). All experiments were conducted using phenol-red free growth media. For hormone depletion, cells were grown in phenol-red free RPMI 1640 medium supplemented with 10% charcoal stripped FBS (Sigma-Aldrich) which was heat inactivated at 56° C. for thirty minutes, and a mixture of 100 units/ml penicillin, 100 μg/ml streptomycin and 2 mM L-glutamine for 96 h.
(§5) RNA isolation, Reverse Transcription, and Real Time PCR. Total RNA was isolated from cells using the RNeasy Mini Kit (Qiagen). Reverse transcription PCR was then performed using 500 ng of total RNA with random primers and using the high-capacity complementary DNA Archive kit (Applied Biosystems). The complementary DNA from this reaction was measured using quantitative real time PCR using the StepONE Plus Real Time PCR system (Life Technologies Corporation, Carlsbad, Calif.). All reactions were performed in triplicate and normalized to glyceraldehyde-3-phosphate-dehydrogenase values in the same samples. All primers and Taqman probes were purchased from the applied Biosystems inventory (Invitrogen) (Patki et al., 2015).
. […]

C4-2 cells = test: MTT cell viability assay, C4-2 cells; format: cell-based; conditions: for EC50: C4-2, 72 h, 0.1 μM-10 μM, read-out: EC50, inhibition of C4-2 cell growth; for cell death (viable cells below the number on Day 0): C4-2 cells, 5 μM, MTT Day 3 relative to Day 0, FIG. 6C
Description: as §1, §2

DLC1 mRNA in C4-2 cells = test: In situ HDACi activity: DLC1 mRNA in C4-2 cells; format: cell-based; conditions: 48 h, normalized to GAPDH mRNA, FIG. 2F
Description: as §3, §4, §5
. […]

## CC1(C)C(=O)N(c2ccc(C#N)c(C(F)(F)F)c2)C(=S)N1c1ccc(C(=O)NCCCCCCC(=O)NO)c(F)c1 [Compound 2-75, 4-(3-(4-cyano-3-(trifluoromethyl)phenyl)-5,5-dimethyl-4-oxo-2-thioxoimidazolidin-1-yl)-2-fluoro-N-(7-(hydroxyamino)-7-oxoheptyl)benzamide]
22Rv1 cells
  EC50: 4.68 µM
Hsp90
  Hsp90 protein level (degradation): more marked reduction in Hsp90
p21 mRNA in C4-2 cells
  p21 mRNA expression: induced p21 to a greater extent than SAHA
DLC1 mRNA in LNCaP cells
  DLC1 mRNA expression: poor inducers of DLC1 mRNA compared with SAHA
C4-2 cells; MTT, Day 3, FIG. 6A
  EC50: 1.62 µM
C4-2 cells
  cell death (viable cells below the number on Day 0): caused cell death
DLC1 mRNA in C4-2 cells
  DLC1 mRNA expression: poor inducers of DLC1 mRNA compared with SAHA

## CC1(C)C(=O)N(c2ccc(C#N)c(C(F)(F)F)c2)C(=S)N1c1ccc(/C=C/C(=O)NO)c(F)c1 [Compound 1005, (E)-3-(4-(3-(4-cyano-3-(trifluoromethyl)phenyl)-5,5-dimethyl-4-oxo-2-thioxoimidazolidin-1-yl)-2-fluorophenyl)-N-hydroxyacrylamide]
22Rv1 cells
  EC50: 4.17 µM
Hsp90
  Hsp90 protein level (degradation): more marked reduction in Hsp90
p21 mRNA in C4-2 cells
  p21 mRNA expression: induced p21 to a greater extent than SAHA
DLC1 mRNA in LNCaP cells
  DLC1 mRNA expression: poor inducers of DLC1 mRNA compared with SAHA
C4-2 cells; MTT, Day 3, FIG. 6A
  EC50: 3.29 µM
C4-2 cells
  cell death (viable cells below the number on Day 0): caused cell death
DLC1 mRNA in C4-2 cells
  DLC1 mRNA expression: poor inducers of DLC1 mRNA compared with SAHA

## CNC(=O)c1ccc(N2C(=S)N(c3ccc(C#N)c(C(F)(F)F)c3)C(=O)C2(C)C)cc1F [Enz, Enzalutamide, reference compound]
22Rv1 cells
  effect on growth of 22Rv1 cells: not
Hsp90
  Hsp90 protein level (degradation): had no effect
p21 mRNA in C4-2 cells
  p21 mRNA expression: had no effect
DLC1 mRNA in LNCaP cells
  DLC1 mRNA expression: had no effect
C4-2 cells; MTT, Day 3, up to 10 μM, FIG. 6A
  effect on C4-2 cell growth: could not appreciably affect growth even at a concentration of 10 μM
DLC1 mRNA in C4-2 cells
  DLC1 mRNA expression: had no effect
